Reference: patent EP0888346B1, “CORALYNE ANALOGS AS TOPOISOMERASE INHIBITORS” (RUTGERS, THE STATE UNIVERSITY OF NEW JERSEY, priority 1996, dated 1997)
Converted amounts (≈) assume the structure as drawn. “And” between values parts separate entries of the source, which are not always exact repeats. Identical values can stand only once.

Tests used:
[1] = system: human epidermoid carcinoma KB 3-1 cell line; assay: MTA cytotoxicity assay, epidermoid carcinoma cells; type: cell-based; conditions: KB 3-1, 96 h, read-out: Cytotoxicity KB3-1
Protocol: The results were plotted and the IC50 then measured.
The coralyne analog 7c was tested for its effectiveness against glioblastoma cells. The assay used was similar to that described above for the RPMI-8402 cell line. The results are shown in table 2 below which compares the effect of Compound 7c against the leukemia cell line (RPMI 8402), epidermal carncinoma (KB3-1) and glioblastoma (SF-268): Table 2

[2] = system: camptothecin-resistant CPT-K5 cells; assay: MTT-microtiter plate tetrazolinium cytotoxicity assay (MTA), camptothecin-resistant cells; conditions: Homo sapiens, CPT-K5, 96 h, read-out: Cytotoxicity IC50 CPT-K5
Protocol: The IC50 of the drugs tested were determined by the MTT-microtiter plate tetrazolinium cytotoxicity assay (MTA) (Mosmann, T., J. Immunol. Methods 65:55-63 (1983); Denizot et al., J. Immunol. Methods 89:271-277 (1986)). Human lymphoblast RPMI 8402 cells and their camptothecin-resistant CPT-K5 cells (Andoh et al., Proc. Natl. Acad. Sci., USA 84:5565-5569 (1987)) were kindly provided by Dr. Toshiwo Andoh (Aichi Cancer Center Research Institute, Nagoya, Japan). […] Cells (2000 cells/well, seeded in […] growth medium) were grown in suspension at 37°C in 5% CO2 and maintained by regular passage in RPMI medium supplemented with 10% heat inactivated fetal bovine serum, L-glutamine (2 mM), penicillin (100 U/ml), and streptomycin (0.1 mg/ml). The cells were exposed continuously for 4 days to different drug concentrations, and assayed at the end of the fourth day. Each concentration and the no drug control were repeated at least twice in 6 replica wells. The results were plotted and the IC50 then measured. The drug sensitive human epidermoid carcinoma KB 3-1 cell line and its vinblastine-selected multidrug-resistant variant KB-V1 cells (Akiyama et al., Genetics 11:117-126 (1985)) were kindly provided by Dr. Michael Gottesmann (National Cancer Institute). They were grown as monolayer cultures at 37°C in 5% CO2 and maintained by regular passage in Dulbecco's minimal essential medium supplemented with 10% heat inactivated fetal bovine serum. KB-V1 cells were maintained in the presence of […] vinblastine.

[3] = molecular target: T1, human topoisomerase I (Homo sapiens, UniProt P11387); assay: Topo I cleavage assay (plasmid YEpG DNA); type: biochemical
T1 construct: 15 amino acid vector-derived fusion (pET-11a leader); made in house; host or cells: E. coli BL21(DE3)
T1 sequence (P11387 1-765): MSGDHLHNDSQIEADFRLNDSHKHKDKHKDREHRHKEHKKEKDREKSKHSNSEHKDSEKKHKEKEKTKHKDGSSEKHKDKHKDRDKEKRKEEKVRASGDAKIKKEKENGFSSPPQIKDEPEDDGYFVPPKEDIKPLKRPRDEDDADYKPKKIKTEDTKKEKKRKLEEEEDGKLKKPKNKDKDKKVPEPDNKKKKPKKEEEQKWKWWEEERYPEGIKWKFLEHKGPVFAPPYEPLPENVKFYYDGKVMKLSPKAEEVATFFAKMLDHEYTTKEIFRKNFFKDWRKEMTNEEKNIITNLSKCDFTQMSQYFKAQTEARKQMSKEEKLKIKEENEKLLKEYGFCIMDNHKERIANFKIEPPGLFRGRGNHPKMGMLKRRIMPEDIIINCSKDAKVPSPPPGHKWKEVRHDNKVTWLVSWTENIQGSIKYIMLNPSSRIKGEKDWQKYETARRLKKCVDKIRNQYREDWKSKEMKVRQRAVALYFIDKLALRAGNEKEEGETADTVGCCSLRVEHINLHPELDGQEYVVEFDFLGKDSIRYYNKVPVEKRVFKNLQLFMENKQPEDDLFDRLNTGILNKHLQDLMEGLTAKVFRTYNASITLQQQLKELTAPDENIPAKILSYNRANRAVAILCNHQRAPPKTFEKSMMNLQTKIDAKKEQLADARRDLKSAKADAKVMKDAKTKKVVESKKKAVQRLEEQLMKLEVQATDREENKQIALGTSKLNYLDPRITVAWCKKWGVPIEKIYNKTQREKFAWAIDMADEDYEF
Excerpt: To obtain large quantity of human topoisomerase I, the human topoisomerase I cDNA was cloned into the pET-11a vector, in which transcription of the cDNA is under the control of the inducible T7 promoter (Studier et al., Methods in Enzymol., Vol. 185:60-89, San Diego: Academic Press (1990)). Briefly, a 3.4 kb DNA fragment containing the entire coding sequence of human topoisomerase I and approximately 1 kb of untranslated region downstream of the stop codon was isolated from the plasmid YCpGAL1-hTOP1 (Bjornsti et al., Cancer Res. 49:6318-6323 (1989)) by cutting at the BamHI and EcoRI sites. The vector pET-11a was cut with the same restriction enzymes, dephosphorylated and ligated to the insert in the proper reading-frame downstream of the vector cloning site. The ligation mixture was used to transform E. coli, the correct clone pET1B was isolated (see figure 2A for the map) and its identity confirmed by restriction mapping. Since the translational start in pET is positioned at an upstream NdeI site, the expressed topoisomerase I has a 15 amino acid fusion at its N-terminus. pET1B was then transformed into E. coli BL21(DE3), and, upon induction with 0.4 mM IPTG for 1 hour, the bacterial lysate was analyzed by 10 % SDS-PAGE. Expression was confirmed by Western blotting using rabbit antibodies against human topoisomerase I. Isolation of the expressed protein was done by a simple procedure. Briefly, E. coli cells were lysed by repeated sonic bursts. The sonic extract was made in 1 M NaCl and 6% polyethylene glycol (PEG) to remove nucleic acids. The PEG supernatant was chromatographed directly on a hydroxyapatite column. Expressed human DNA topoisomerase I was eluted at the 0.6 M potassium phosphate step. The eluted enzyme was dialyzed against 50% glycerol, 30 mM potassium phosphate (pH 7.0), 1 mM dithiothreitol (DTT) and 0.1 mM EDTA and stored at -20°C.
Cleavage assays for the recombinant topoisomerases I and calf thymus topoisomerases I and II were done as described (Liu et al., J. Biol. Chem. 258:15365-15370 (1983)). The plasmid YEpG DNA used for the cleavage assays was prepared and labeled at its 3'-end using the published procedures.

SMILES: CC[C@@]1(O)C(=O)OCc2c1cc1n(c2=O)Cc2cc3ccccc3nc2-1 [CPT, camptothecin, reference compound]
- IC50 [1]: 4 ng/mL (≈ 0.0115 µM)
- IC50 [2]: > 10 µM
- Topo I-mediated DNA cleavage (REC, Relative Effective Concentration) ([3]; concentration relative to camptothecin (CPT) = 1 producing the same cleavage on the plasmid DNA): 1
- EC (total cleavage) ([3]; read-out: concentration giving total cleavage of DNA in the presence of topoisomerase I): 0.29 µM and 0.1 µg/mL
